# Measured values taken from patent publication US20160361250A1, “ACTIVE INGREDIENTS STIMULATING TYPE 2 AND/OR TYPE 3 HUMAN BETA-DEFENSINS AND COSMETIC OR PHARMACEUTICAL COMPOSITIONS CONTAINING SUCH ACTIVE INGREDIENTS” (BASF Beauty Care Solutions France S.A.S., priority 2002, published 2016).
# Several values for one entry are separate records, joined by “and”; a condition that tells them apart may be missing. Identical values can stand only once.
# B1: IFNγ: gamma interferon, positive control for hBD3 stimulation, 100 ng/mL (protein, UniProt P01579 24-161, looked up)
# Interferon gamma: QDPYVKEAENLKKYFNAGHSDVADNGTLFLGILKNWKEESDRKIMQSQIVSFYFKLFKNFKDDQSIQKSVETIKEDMNVKFFNSNKKKRDDFEKLTNYSVTDLNVQRKAIHELIQVMAELSPAAKTGKRKRSQMLFRG
# Experiments:
# hBD3 [1] = experiment: Qualitative RT-PCR of hBD3 expression, 1st step of the screening method; format: cell-based; conditions: normal human keratinocytes, 16 h
# Method: (§1) At 80% confluence, cells are contacted with the actives (1 active per well) for 16 h. An untreated control and 2 positive controls (TNFα 100 ng/mL for hBD2 and IFNγ 100 ng/mL for hBD3) are set up in parallel on the same culture plate.
# (§2) After 16 h, the supernatants are collected and cells are dry frozen at −80° C. after rinsing in PBS.
# (§3) Total RNA are extracted using a 96-well extraction kit on silica columns and assayed using a 96-well spectrophotometer at 260 and 280 nm. RNA are diluted to 5 ng/mL.
# (§4) Qualitative one-step RT-PCR is performed on 50 ng of initial RNA in 96 wells, on actin, hBD2 and hBD3. The primers are used at a concentration of 0.5 μM and arc taken from the literature:—hBD2: sense: 5′-[…]-3′; hBD2 antisense 5′-[…]-3′ (Harder J. et al., A peptide antibiotic from human skin. Nature 1997; 387 : 861); hBD3 sense: 5′-[…]-3′; hBD3 antisense: 5′-[…]-3′; actin sense: 5′-[…]-3′; actin antisense: 5′-[…]-3′ (Harder J. et al., Isolation and characterization of human β-defensin-3, a novel human inducible peptide antibiotic. J Biol Chem 2001, 276 : 5707-5713).
# (§5) Samples are placed in a thermocycler and follow a common amplification program: 50° C., 30 min; 94° C., 2 min, (94° C., 30 s; 60° C., 30 s; 68° C., 30 s), 32 cycles for the defensins and 30 cycles for actin; 72° C., 10 min; 14° C., infinite.
# (§6) After amplification, the products are mixed at a rate of 3 μL of actin amplification products+6 μL of hBD2 amplification products+6 μL of hBD3 amplification products. 5 μL of a mixture of charge buffer and water (⅔) are added and the final 20 μL are deposited on 2% premoulded agarose gel. The samples migrate in 30 minutes and the bands are visualised under UV in a dark room then digitally photographed.
# (§7) Photos of the gels are analysed by image processing software which quantifies the intensity of the bands. As the basal level of defensin expression (untreated control) is not detectable, the intensity ratios of the hBD2/actin and hBD3/actin bands can be compared, for example with those obtained for the positive control (treated with TNFα for hBD2 and IFNγ for hBD3) and indicate any stimulation of the expression of the β-defensin in question
# (§8) Since the basal level of defensin expression is generally not detectable, stimulation of hBD2 and hBD3 is expressed as a percentage of the positive controls (TNFα for hBD2 and IFNγ for hBD3). IL8 and MIP3α levels are given as pg/mL/RNA concentration (in ng/μL).
# hBD2 and/or hBD3 [2] = experiment: 1st step of the screening method, overall outcome (defensin RT-PCR plus MIP3α/IL8 ELISA); format: cell-based, human; conditions: first step
# Method: (§9) A 1% concentration of the actives is tested on normal human keratinocytes, as a monolayer, on 96-well culture plates, in a specific medium enriched with calcium and free of serum (final concentration 1.7 mM).
# as §1, §2, §3
# Qualitative one-step RT-PCR is performed on 50 ng of initial RNA in 96 wells, on actin, hBD2 and hBD3. The primers are used at a concentration of 0.5 μM and arc taken from the literature:—hBD2: sense: 5′-[…]-3′; hBD2 antisense 5′-[…]-3′ (Harder J. et al., A peptide antibiotic from human skin. Nature 1997; 387 : 861); hBD3 sense: 5′-[…]-3′; hBD3 antisense: 5′-[…]-3′; actin sense: 5′-[…]-3′; actin antisense: 5′-[…]-3′ (Harder J. et al., Isolation and characterization of human β-defensin-3, a novel human inducible peptide antibiotic. J Biol Chem 2001, 276 : 5707-5713). […]
# Photos of the gels are analysed by image processing software which quantifies the intensity of the bands. […]
# hBD3 [3] = experiment: Quantitative RT-PCR of hBD3 expression, 2nd step (dose-effect); format: cell-based, human; conditions: 16 h, untreated control = 100%
# Method: (§10) The actives are then tested on 5 concentrations (from 0.001% to max viability) in quadruplicate on normal human keratinocytes as a monolayer on 96-well culture plates, in a specific medium enriched with calcium and free of serum (CaCl2 1.7 mM) (same conditions as in example 1).
# as §2
# (§11) Total RNA are extracted using a 96-well extraction kit on silica columns and assayed using a 96-well spectrophotometer at 260 and 280 nm. RNA are diluted to 5 ng/μL.
# (§12) Quantitative RT-PCR in 96 wells on actin, hBD2 and hBD3 is initially carried out on 50 ng of RNA, using a one-step kit containing Sybrgreen, in a fluorescence thermocycler with the same primers as previously (0.5 μM). The amplification program is as follows: 50° C., 30 min; 94° C., 15 min; (94° C., 15 s; 60° C., 30 s; 72° C., 30 s)×50 cycles; 90° C., 1 min; 30° C., 1 min; 50° C. to 95° C. (10 s every ° C.); 14° C., infinite.
# (§13) A study of the fusion graphs makes it possible to verify the specificity of amplified products. The fluorescence graph as a function of the number of cycles gives the C(T) value corresponding to the number of cycles needed to obtain initiation of the fluorescence signal. The more an mRNA is expressed, the lower the C(T) value. Calculation of Sgene=(½)^C(T) for each RNA takes into consideration the exponential increase in the number of copies during amplification. The Sgene hBD2/Sgene actin and Sgene hBD3/Sgene actin ratios can be compared with those of the untreated control to give the percentage stimulation produced.
# (§14) Quantitative RT-PCR makes it possible to obtain a basal value for the defensin expression for untreated controls. The results are therefore expressed as a percentage of the control. IL8, IL1 and MIP3 cytokine levels are given as pg/mL/RNA concentration (in ng/μL).
# (§15) In the same way as in example 2, retinoic acid and retinol were tested for their capacity to stimulate hBD2 and/or hBD3.
# hBD2 [4] = experiment: Qualitative RT-PCR of hBD2 expression, 1st step of the screening method; format: cell-based; conditions: normal human keratinocytes, 16 h
# Method: as §9, §1, §2, §3, §4, §5, §6, §7, §8
# hBD2 [5] = experiment: Quantitative RT-PCR of hBD2 expression, 2nd step (dose-effect); format: cell-based, human; conditions: 16 h, untreated control = 100%
# Method: as §10, §2, §11, §12, §13, §14, §15
# IL1α = experiment: ELISA of IL1α in supernatants, 2nd step; format: cell-based, human; conditions: supernatant, 16 h
# Method: (§16) The supernatants of the actives, whose capacity to induce defensins has been confirmed, are tested using an ELISA kit in order to assay MIP3α, IL8 and IL1α levels. These assays are performed on the same supernatant (200 μL) by carrying out a series dilution (by 1.5 to assay MIP3α and IL8, then by 2 to assay IL1). The levels are then referred to the RNA concentration assayed in each well in order to compare results with each other.
# as §14
# hBD2 and/or hBD3 [6] = experiment: 2nd step of the screening method, overall outcome (quantitative RT-PCR plus MIP3α/IL8/IL1α ELISA); format: cell-based, human; conditions: 3.125, 6.25, 12.5 and 25 μg/mL
# Method: The actives which best satisfied the criteria for the first step undergo a dose-effect analysis.
# as §10, §2, §11, §12, §13
# The supernatants of the actives, whose capacity to induce defensins has been confirmed, are tested using an ELISA kit in order to assay MIP3α, IL8 and IL1α levels. These assays are performed on the same supernatant (200 μL) by carrying out a series dilution (by 1.5 to assay MIP3α and IL8, then by 2 to assay IL1). […]
# IL8 [7] = experiment: ELISA of IL8 in supernatants, 2nd step; format: cell-based, human; conditions: supernatant, 16 h
# Method: as §16, §14
# MIP3α = experiment: ELISA of MIP3α in supernatants, 2nd step; format: cell-based, human; conditions: supernatant, 16 h
# Method: as §16, §14
# IL8 [8] = experiment: ELISA of IL8 secreted into the culture medium, 1st step; format: cell-based, human; conditions: 100 ng/mL (positive control); keratinocyte supernatant, 16 h
# Method: At the end of this first step, the actives having exerted an effect on β-defensin expression are selected and the supernatants corresponding to these actives are then tested using an ELISA kit in order to determine the levels of MIP3α, IL1 and IL8 secreted into the culture medium under the effect of the actives. The levels are then referred to the RNA concentration assayed in each well in order to compare results with each other.
# as §8
molecule,measurement,setting,value
CC[C@H](C)[C@H](N)C(=O)O [L-Isoleucine],"HBD3 expression, percentage of the positive control (IFNγ)",hBD3 [1]; 10 μg/mL,0%
same,stimulation of human defensins 2 and 3 by qualitative RT-PCR (in words),hBD2 and/or hBD3 [2],no significant stimulation of human defensins 2 and 3
same,"hBD3 expression, percentage of the control",hBD3 [3]; conc. 3.125 μg/mL,89%
same,"hBD3 expression, percentage of the control",hBD3 [3]; conc. 6.25 μg/mL,94%
same,"hBD3 expression, percentage of the control",hBD3 [3]; conc. 12.5 μg/mL,101%
same,"hBD3 expression, percentage of the control",hBD3 [3]; conc. 25 μg/mL,106%
same,"HBD2 expression, percentage of the positive control (TNFα)",hBD2 [4]; 10 μg/mL,0%
same,"hBD2 expression, percentage of the control",hBD2 [5]; conc. 3.125 μg/mL,110%
same,"hBD2 expression, percentage of the control",hBD2 [5]; conc. 6.25 μg/mL,107%
same,"hBD2 expression, percentage of the control",hBD2 [5]; conc. 12.5 μg/mL,95%
same,"hBD2 expression, percentage of the control",hBD2 [5]; conc. 25 μg/mL,110%
same,IL1α level,IL1α; conc. 3.125 μg/mL,21 pg/mL/RNA concentration (in ng/μL)
same,IL1α level,IL1α; conc. 6.25 μg/mL,22.3 pg/mL/RNA concentration (in ng/μL)
same,IL1α level,IL1α; conc. 12.5 μg/mL,25.3 pg/mL/RNA concentration (in ng/μL)
same,IL1α level,IL1α; conc. 25 μg/mL,22.8 pg/mL/RNA concentration (in ng/μL)
same,induction of hBD2 and hBD3 expression in normal human keratinocytes (in words),hBD2 and/or hBD3 [6],has not been found capable of inducing hBD2 and hBD3 expression
same,IL8 level,IL8 [7]; conc. 3.125 μg/mL,36.9 pg/mL/RNA concentration (in ng/μL)
same,IL8 level,IL8 [7]; conc. 6.25 μg/mL,33.6 pg/mL/RNA concentration (in ng/μL)
same,IL8 level,IL8 [7]; conc. 12.5 μg/mL,42.2 pg/mL/RNA concentration (in ng/μL)
same,IL8 level,IL8 [7]; conc. 25 μg/mL,35.1 pg/mL/RNA concentration (in ng/μL)
same,MIP3α level,MIP3α; conc. 3.125 μg/mL,5.2 pg/mL/RNA concentration (in ng/μL)
same,MIP3α level,MIP3α; conc. 6.25 μg/mL,4.9 pg/mL/RNA concentration (in ng/μL)
same,MIP3α level,MIP3α; conc. 12.5 μg/mL,5.9 pg/mL/RNA concentration (in ng/μL)
same,MIP3α level,MIP3α; conc. 25 μg/mL,4.5 pg/mL/RNA concentration (in ng/μL)
TNFα,"HBD3 expression, percentage of the positive control (IFNγ)",hBD3 [1]; 100 ng/mL (positive control),100%
same,"hBD3 expression, percentage of the control",hBD3 [3]; conc. 100 ng/mL,774%
same,IL8 level,IL8 [8],186 pg/mL/RNA concentration (in ng/μL) and 97 pg/mL/RNA concentration (in ng/μL)
same,"HBD2 expression, percentage of the positive control (TNFα)",hBD2 [4]; 100 ng/mL (positive control),100%
same,"hBD2 expression, percentage of the control",hBD2 [5]; conc. 100 ng/mL,1755%
same,IL1α level,IL1α; conc. 100 ng/mL,21.8 pg/mL/RNA concentration (in ng/μL)
same,IL8 level,IL8 [7]; conc. 100 ng/mL,175 pg/mL/RNA concentration (in ng/μL)
same,MIP3α level,MIP3α; conc. 100 ng/mL,23.6 pg/mL/RNA concentration (in ng/μL)
B1,"hBD3 expression, percentage of the control",hBD3 [3]; conc. 100 ng/mL,4631%
same,"hBD2 expression, percentage of the control",hBD2 [5]; conc. 100 ng/mL,472%
same,IL1α level,IL1α; conc. 100 ng/mL,40.1 pg/mL/RNA concentration (in ng/μL)
same,IL8 level,IL8 [7]; conc. 100 ng/mL,100.5 pg/mL/RNA concentration (in ng/μL)
same,MIP3α level,MIP3α; conc. 100 ng/mL,11.6 pg/mL/RNA concentration (in ng/μL)
